# Data taken from patent US20080063628A1, “METHODS TO PROMOTE CELL DIFFERENTIATION” (priority 2006, published 2008).
# Experiments:
# [1] = tested on: late passage (P11) pancreatic-derived stromal cell line; experiment: Two sequential high dose trichostatin A treatments (24 h each), gene expression by RT-PCR (Example 8); format: cell-based, human; conditions: for HNF-3 beta RT-PCR detection cycle / Pdx-1 RT-PCR detection cycle / glucagon RT-PCR detection cycle: 5.0 μM
# Description: Several cell lines obtained from different amniotic fluid specimens (see Example 14) and pancreas donors (see Example 13) were tested with similar results. Two lines at similar passage number but derived from different amniotic fluid specimens are shown in Table VIII-A and Table VIII-B for this example. One of these cell lines was also used in examples 2 and 4 above. In addition, this example also contains comparison data in Table VIII-C and Table VIII-D for a single pancreatic-derived stromal line grown to early and late passage number.
# (§1) Amniotic fluid derived cells or pancreatic-derived stromal cells were seeded into 24-well tissue culture plates at a density of 5000/cm^2 and cultured in AMNIOMAX (Invitrogen) or DMEM with 10% FBS respectively under standard cell culture conditions until confluent. After the cells reached confluency, amniotic fluid derived cells were treated at time 0 hours with a dose of 1.25 μM trichostatin A, and pancreatic-derived stromal cells were treated with a dose of 5.0 μM trichostatin A solubilized in DMSO and medium. At time 24 hours, cell cultures underwent a complete medium change to remove all traces of trichostatin A. At time 96 hours, cell cultures were re-fed with fresh medium and received a second dose of trichostatin A at the same concentration as used previously. At time 120 hours, cell cultures again underwent a complete medium change and were cultured for an additional 24 hours or […] total incubation time.
# Samples were taken daily for RT-PCR at the times indicated in Table VIII-A to D. The culture media was removed, and samples were rinsed in PBS then collected in RLT with β-mercaptoethanol (Qiagen). RNA was purified using the RNeasy Mini Kit (Qiagen) and RNA quantity and quality were determined using a spectrophotometer. cDNA was made using the iScript cDNA synthesis kit (BioRad).
# (§2) Samples of 20 ng cDNA were used in each reaction to determine the expression levels of the following genes in amniotic fluid-derived cells: Gata1, HNF-3 beta, Pdx-1, insulin, and Sox17. Similarly, samples of 20 ng cDNA were used in each reaction to determine the expression level of the following genes in pancreatic-derived cells: glucagon, HNF-3 beta, insulin and Pdx-1. Real-Time PCR was performed on the Applied Biosystems 7500, and data was analyzed using the accompanying software according to the methods described in Example 15.
# (§3) Real-time PCR amplifcation and quantitative analysis. Unless otherwise stated, all reagents were purchased from Applied Biosystems. Real-time PCR reactions were performed using the ABI PRISM™ 7500 Sequence Detection System. TAQMAN™ FAST UNIVERSAL PCR MASTER MIX™ (ABI, CA) was used with 20 ng of reverse transcribed RNA in a total reaction volume of 20 μl. Each cDNA sample was run in duplicate to allow correction of pipetting errors. Primers and FAM-labeled TAQMAN™ probes were used at concentrations of 200 nM. The level of expression for each target gene was normalized using the pre-developed Applied Biosystem's human glyceraldehyde-3-phosphate dehydrogenase (GAPDH) endogenous control kit. Primers and probes were designed using either ABI PRISM PRIMER EXPRESS™ software or a pre-developed ABI gene analysis kit. For each gene, either one of the primers or the probe were designed to be exon-boundary spanning. This eliminated the possibility of the primers/probe binding to any genomic DNA present. The primer and probe sets are listed as follows: Pdx-1 (Hs00426216), Insulin (Hs00355773), glucagon (Hs00174967), and FoxA2 (HNF 3-beta) (Hs00232764). The remaining primers were designed using the PRIMERS program (ABI, CA). After an initial 95° C. incubation for 20 sec, samples were cycled 40 times in two stages: a denaturation step at 95° C. for 3 sec, followed by an annealing/extension step at 60° C. for 30 sec. […]
# [2] = tested on: late passage (P14) pancreatic-derived stromal cell line; experiment: Two sequential low dose trichostatin A treatments, gene expression by RT-PCR (Example 7); format: cell-based, human; conditions: for HNF (HNF-3 beta) gene expression / Insulin gene expression / Pdx-1 gene expression / glucagon gene expression: 1.25 μM 0-24 h + 96-120 h
# Description: Several cell lines obtained from different amniotic fluid specimens (see Example 14) and pancreas donors (see Example 13) were tested with similar results. Two lines at similar passage number but derived from different amniotic fluid specimens are shown in Table VII-A and Table VII-B for this example. One of these cell lines was also used in examples 2 and 4 above. In addition, this example also contains comparison data in Table VII-C and Table VII-D for a single pancreatic-derived stromal line grown to early and late passage number.
# as §1, with “500 nM” for “1.25 μM”, “1.25” for “5.0”
# Samples were taken daily for RT-PCR at the times indicated in Table VII-A to D. The culture medium was removed, and samples were rinsed in PBS then collected in RLT with β-mercaptoethanol (Qiagen). RNA was purified using the RNeasy Mini Kit (Qiagen) and RNA quantity and quality were determined using a spectrophotometer. cDNA was made using the iScript cDNA synthesis kit (BioRad).
# as §2, §3
# [3] = 5 μM 0-24 h + 96-120 h, 120 hrs
# [4] = 1.25 μM, after the second treatment cycle
# [5] = 1.25 μM, following first treatment
smiles,measurement,setting,value
CC(/C=C/C(=O)NO)=C\[C@@H](C)C(=O)c1ccc(N(C)C)cc1 [trichostatin A],Pdx-1 gene expression,"[1]; 5 μM 0-24 h + 96-120 h, 24 hrs",+ (detectable at less than 35 cycles with SE greater than 0.9)
same,Insulin gene expression,"[1]; 5 μM 0-24 h + 96-120 h, 48 hrs",+ (detectable at less than 35 cycles with SE greater than 0.9)
same,glucagon gene expression,"[1]; 5 μM 0-24 h + 96-120 h, 48 hrs",+ (detectable at less than 35 cycles with SE greater than 0.9)
same,glucagon gene expression,"[1]; 5 μM 0-24 h + 96-120 h, 72 hrs",+ (detectable at less than 35 cycles with SE greater than 0.9)
same,glucagon gene expression,"[1]; 5 μM 0-24 h + 96-120 h, 96 hrs",+ (detectable at less than 35 cycles with SE greater than 0.9)
same,HNF-3 beta gene expression,[1]; [3],+ (detectable at less than 35 cycles with SE greater than 0.9)
same,glucagon gene expression,[1]; [3],+ (detectable at less than 35 cycles with SE greater than 0.9)
same,glucagon gene expression,"[1]; 5 μM 0-24 h + 96-120 h, 144 hrs",+ (detectable at less than 35 cycles with SE greater than 0.9)
same,HNF-3 beta RT-PCR detection cycle,[1]; after the second treatment,36 cycles
same,HNF-3 beta RT-PCR detection cycle,[1]; following first treatment,32 cycles
same,Pdx-1 RT-PCR detection cycle,[1]; following first treatment,31 cycles
same,glucagon RT-PCR detection cycle,[1]; following first treatment,33 cycles
same,glucagon RT-PCR detection cycle,[1]; following the medium change,38 cycles
same,Pdx-1 RT-PCR detection cycle,[1]; following the second addition,34 cycles
same,HNF (HNF-3 beta) gene expression,[2]; 24 hrs,+ (detectable between 35 and 40 cycles by RT-PCR)
same,Insulin gene expression,[2]; 24 hrs,nd (not detectable at >40 cycles by RT-PCR)
same,Pdx-1 gene expression,[2]; 24 hrs,+++ (detectable at less than 35 cycles by RT-PCR with SE less than 0.9)
same,glucagon gene expression,[2]; 24 hrs,+++ (detectable at less than 35 cycles by RT-PCR with SE less than 0.9)
same,HNF (HNF-3 beta) gene expression,[2]; 48 hrs,nd (not detectable at >40 cycles by RT-PCR)
same,Pdx-1 gene expression,[2]; 48 hrs,nd (not detectable at >40 cycles by RT-PCR)
same,glucagon gene expression,[2]; 48 hrs,+++ (detectable at less than 35 cycles by RT-PCR with SE less than 0.9)
same,HNF (HNF-3 beta) gene expression,[2]; 72 hrs,nd (not detectable at >40 cycles by RT-PCR)
same,Insulin gene expression,[2]; 72 hrs,nd (not detectable at >40 cycles by RT-PCR)
same,Pdx-1 gene expression,[2]; 72 hrs,nd (not detectable at >40 cycles by RT-PCR)
same,glucagon gene expression,[2]; 72 hrs,+ (detectable between 35 and 40 cycles by RT-PCR)
same,HNF (HNF-3 beta) gene expression,[2]; 96 hrs,nd (not detectable at >40 cycles by RT-PCR)
same,Insulin gene expression,[2]; 96 hrs,nd (not detectable at >40 cycles by RT-PCR)
same,Pdx-1 gene expression,[2]; 96 hrs,nd (not detectable at >40 cycles by RT-PCR)
same,glucagon gene expression,[2]; 96 hrs,nd (not detectable at >40 cycles by RT-PCR)
same,HNF (HNF-3 beta) gene expression,[2]; 120 hrs,+++ (detectable at less than 35 cycles by RT-PCR with SE less than 0.9)
same,Insulin gene expression,[2]; 120 hrs,nd (not detectable at >40 cycles by RT-PCR)
same,Pdx-1 gene expression,[2]; 120 hrs,++ (detectable at less than 35 cycles by RT-PCR with SE greater than 0.9)
same,HNF (HNF-3 beta) gene expression,[2]; 144 hrs,nd (not detectable at >40 cycles by RT-PCR)
same,Insulin gene expression,[2]; 144 hrs,nd (not detectable at >40 cycles by RT-PCR)
same,Pdx-1 gene expression,[2]; 144 hrs,nd (not detectable at >40 cycles by RT-PCR)
same,glucagon gene expression,[2]; 144 hrs,+ (detectable between 35 and 40 cycles by RT-PCR)
same,HNF-3 beta RT-PCR detection cycle,[2]; [4],34 cycles
same,Pdx-1 RT-PCR detection cycle,[2]; [4],34 cycles
same,glucagon RT-PCR detection cycle,[2]; [4],36 cycles
same,HNF-3β RT-PCR detection cycle,[2]; [5],33 cycles
same,Pdx-1 RT-PCR detection cycle,[2]; [5],33 cycles
same,glucagon RT-PCR detection cycle,[2]; [5],33 cycles
